Laboratory results as given in ChEMBL document CHEMBL4673396, “Structural Basis for Targeting the Folded P-Loop Conformation of c-MET” (ACS Med Chem Lett, 2021).

Assay: Lipophilicity, logD of the compound in octanol and water at pH 7.4 by shake-flask method
Type: physicochemical

Row | logD | Structure (SMILES)
1 | 2.4 | Fc1cccc(Cc2c[nH]c3ncc(-c4cnn(C5CCNCC5)c4)cc23)c1
2 | 2.5 | Fc1ccccc1Cc1c[nH]c2ncc(-c3cnn(C4CCNCC4)c3)cc12
3 | 2.31 | c1ccc(Cc2c[nH]c3ncc(-c4cnn(C5CCNCC5)c4)cc23)cc1

Continued, molecule first:

Row | Structure (SMILES) | logD
4 | Fc1ccc(Cc2c[nH]c3ncc(-c4cnn(C5CCNCC5)c4)cc23)cc1 | 2.4
5 | O=C1NCc2c(-c3cnc4[nH]cc(Cc5ccccc5)c4c3)c[nH]c21 | 4
